# Reference: ChEMBL document CHEMBL1201862, “PubChem BioAssay data set” (2004)
# The source made the active and inactive calls.
# Legend:
# [1] = target: T1, Polyadenylate-binding protein 1 (Homo sapiens, UniProt P11940); assay: PABP1 MLLE–PAM2 binding inhibitor potency, dose response, biochemical, fluorescence polarization, FITC-PAM2 peptide (AID 602259); type: functional; conditions: read-out: IC50_Mean
# [2] = target: T1, Polyadenylate-binding protein 1; assay: PABP1 MLLE–PAM2 interaction inhibitors, dose response, miRNA deadenylation inhibitor project, biochemical, fluorescence polarization, Cy5-PAM2 peptide, secondary (AID 602260); type: functional; conditions: read-out: IC50_Mean
# [3] = target: T2, Heat shock factor protein 1 (Mus musculus, UniProt P38532); assay: HSF1 potentiators in luciferase reporter cells, confirmation, cell-based, NIH3T3, luminescence, dose retest (AID 435004); type: functional;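 note: stress induced by proteasome inhibitor MG132 added 30 min after compound; luciferase reporter driven by HSF1 response element in NIH3T3 cells; actives raise luminescence as potentiators of the MG132 stress response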
# T2 sequence (P38532 whole entry): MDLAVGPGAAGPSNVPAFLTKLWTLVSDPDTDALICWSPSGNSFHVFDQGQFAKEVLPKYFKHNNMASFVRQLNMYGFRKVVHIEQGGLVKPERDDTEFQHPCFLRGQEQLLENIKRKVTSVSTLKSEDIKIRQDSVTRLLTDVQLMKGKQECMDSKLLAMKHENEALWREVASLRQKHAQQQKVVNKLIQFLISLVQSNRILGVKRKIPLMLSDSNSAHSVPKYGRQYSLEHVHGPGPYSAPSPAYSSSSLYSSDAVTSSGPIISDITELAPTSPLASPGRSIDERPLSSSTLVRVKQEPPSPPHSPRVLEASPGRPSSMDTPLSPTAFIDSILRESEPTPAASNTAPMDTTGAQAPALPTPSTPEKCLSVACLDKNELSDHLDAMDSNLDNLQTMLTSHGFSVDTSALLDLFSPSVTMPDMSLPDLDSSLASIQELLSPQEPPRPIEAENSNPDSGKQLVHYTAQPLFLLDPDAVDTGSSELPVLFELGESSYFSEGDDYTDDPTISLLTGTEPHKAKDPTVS
# [4] = Luminescence Cell-Based Dose Retest to Confirm Inhibitors of Cancer Stem Cells. [Related pubchem assays (depositor defined):AID2717, AID2721]; type: functional; conditions: Homo sapiens
# [5] = C. albicans growth with fluconazole, confirmation, fluorescence, retest (AID 2467); type: functional, cell-based
# [6] = NIH-3T3 fibroblast cytotoxicity, dose response, cytotoxicity control, cell-based, fluorescence, Alamar Blue, secondary assay (AID 2327); type: functional;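 note: NIH-3T3 mouse fibroblasts cultured with fluconazole at 8 µg/mL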
# [7] = target: Large T antigen (Simian virus 40, UniProt P03070); type: functional, Betapolyomavirus macacae;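 note: Confirmatory-stage PubChem screen for compounds that inhibit SV40 T antigen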
# [8] = target: T3, Rac GTPase-activating protein 1 (Homo sapiens, UniProt Q9H0H5); assay: MgcRacGAP GTPase-activating activity inhibitors, confirmation, biochemical, ADP Hunter fluorescence, primary and confirmatory (AID 624330); type: functional
# T3 sequence (Q9H0H5 whole entry): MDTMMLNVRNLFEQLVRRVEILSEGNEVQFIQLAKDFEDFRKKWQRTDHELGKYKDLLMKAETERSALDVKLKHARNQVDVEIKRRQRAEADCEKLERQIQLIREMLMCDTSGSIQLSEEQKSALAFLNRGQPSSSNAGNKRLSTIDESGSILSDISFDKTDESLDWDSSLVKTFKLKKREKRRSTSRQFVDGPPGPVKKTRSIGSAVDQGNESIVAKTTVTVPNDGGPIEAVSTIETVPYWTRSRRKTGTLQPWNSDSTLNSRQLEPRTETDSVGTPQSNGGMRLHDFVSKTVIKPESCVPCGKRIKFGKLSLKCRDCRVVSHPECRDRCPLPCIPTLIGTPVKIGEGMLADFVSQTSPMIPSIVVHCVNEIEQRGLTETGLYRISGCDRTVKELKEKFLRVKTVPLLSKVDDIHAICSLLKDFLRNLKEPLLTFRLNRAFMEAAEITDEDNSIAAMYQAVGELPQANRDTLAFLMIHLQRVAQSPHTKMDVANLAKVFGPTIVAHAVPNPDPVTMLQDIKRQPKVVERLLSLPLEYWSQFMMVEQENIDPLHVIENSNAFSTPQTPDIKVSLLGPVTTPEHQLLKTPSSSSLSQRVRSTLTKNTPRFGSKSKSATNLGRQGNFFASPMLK
# [9] = Luminescence Cell-Based Dose Confirmation HTS to Identify Activators of 5'UTR Stem-Loop Driven Alpha-Synuclein mRNA Translation in H4 Neuroglioblastoma Cells. [Related pubchem assays: 1829 (Project Summary), 1814 (Primary HTS)]; type: functional
# [10] = Luminescence Cell-Based Dose Response HTS to Identify Activators of Luciferase Translation or Activity in H4 […] Cells. [Related pubchem assays: 1829 (Project Summary), 1814 (Primary HTS)]; type: functional
# [11] = test system: H4; assay: Luminescence Cell-Based Dose Response HTS to Identify Activators of 5'UTR Stem-Loop Driven Prion Protein mRNA Translation in H4 Neuroglioblastoma Cells. [Related pubchem assays: 1829 (Project Summary), 1814 (Primary HTS)]; type: functional; conditions: Homo sapiens
# [12] = microbe, parasite or virus in culture; type: functional; conditions: Mycobacterium tuberculosis
# [13] = target: Cytochrome P450 2D6 (Homo sapiens, UniProt P10635);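 note: CYP2D6 member of a cytochrome P450 panel assay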
# [14] = target: T4, Ubiquitin-conjugating enzyme E2 N (Homo sapiens, UniProt P61088); type: functional;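 note: Dose-response confirmation in a TR-FRET assay detecting UBC13-driven polyubiquitin chain formation, inhibition measured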
# T4 sequence (P61088 whole entry): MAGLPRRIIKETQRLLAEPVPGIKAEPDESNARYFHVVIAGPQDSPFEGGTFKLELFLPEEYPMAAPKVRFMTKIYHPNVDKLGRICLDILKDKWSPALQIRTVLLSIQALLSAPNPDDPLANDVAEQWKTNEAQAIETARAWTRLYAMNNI
# [15] = Luminescence Cell-Based Dose Response HTS to Identify Inhibitors of 5'UTR Stem-Loop Driven Prion Protein mRNA Translation in H4 Neuroglioblastoma Cells. [Related pubchem assays: 1827 (Project Summary), 1813 (Primary HTS)]; type: functional
# [16] = inhibitors of firefly luciferase expression or activity, dose response, H4 neuroglioma cells, luminescence (AID 1990); type: functional, cell-based
# [17] = inhibitors of SNCA 5'UTR-driven reporter translation, confirmation, H4 neuroglioma cells, luminescence (AID 1988); type: functional, cell-based
# [18] = P. falciparum Dd2 growth inhibitors, dose response, SYBR Green, cherry-picked samples (AID 1159567); type: functional, cell-based
# [19] = cells; type: functional
# [20] = target: T5, Streptokinase A (Streptococcus pyogenes serotype M1, UniProt P10520); assay: S. pyogenes streptokinase expression inhibitors, potency, dose response, plasminogen activation absorbance, OD405 (AID 1914); type: functional, Streptococcus pyogenes M1 GAS;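 note: secreted streptokinase activity via plasminogen activation per viability signal from cell pellet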
# T5 sequence (P10520 whole entry): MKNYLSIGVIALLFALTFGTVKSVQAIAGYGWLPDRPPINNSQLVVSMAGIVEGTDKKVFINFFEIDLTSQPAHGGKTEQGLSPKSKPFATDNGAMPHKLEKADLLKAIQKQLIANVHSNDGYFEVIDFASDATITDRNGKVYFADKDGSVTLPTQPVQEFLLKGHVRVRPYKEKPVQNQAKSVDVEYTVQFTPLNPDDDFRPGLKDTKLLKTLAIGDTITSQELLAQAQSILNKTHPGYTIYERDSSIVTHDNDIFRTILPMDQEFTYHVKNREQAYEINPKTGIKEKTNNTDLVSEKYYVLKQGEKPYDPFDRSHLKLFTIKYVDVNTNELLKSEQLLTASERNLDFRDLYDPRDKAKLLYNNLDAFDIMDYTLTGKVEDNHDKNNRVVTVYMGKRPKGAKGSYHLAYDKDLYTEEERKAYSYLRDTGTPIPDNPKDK
# [21] = test system: Streptococcus; assay: Group A Streptococcus viability loss, dose response, counter-screen for streptokinase expression inhibitor project, luminescence, BacTiterGlo (AID 1915); type: functional, organism-based;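 note: potency for reduction of bacterial viability or growth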
# [22] = test system: Streptococcus sp. 'group A'; assay: growth inhibition of control SK(-) GAS strain, dose response, counter-screen for streptokinase expression inhibitor project, luminescence, kanamycin, BacTiterGlo, confirmation (AID 1900); type: functional, organism-based
# Sequence of Large T antigen (P03070 whole entry): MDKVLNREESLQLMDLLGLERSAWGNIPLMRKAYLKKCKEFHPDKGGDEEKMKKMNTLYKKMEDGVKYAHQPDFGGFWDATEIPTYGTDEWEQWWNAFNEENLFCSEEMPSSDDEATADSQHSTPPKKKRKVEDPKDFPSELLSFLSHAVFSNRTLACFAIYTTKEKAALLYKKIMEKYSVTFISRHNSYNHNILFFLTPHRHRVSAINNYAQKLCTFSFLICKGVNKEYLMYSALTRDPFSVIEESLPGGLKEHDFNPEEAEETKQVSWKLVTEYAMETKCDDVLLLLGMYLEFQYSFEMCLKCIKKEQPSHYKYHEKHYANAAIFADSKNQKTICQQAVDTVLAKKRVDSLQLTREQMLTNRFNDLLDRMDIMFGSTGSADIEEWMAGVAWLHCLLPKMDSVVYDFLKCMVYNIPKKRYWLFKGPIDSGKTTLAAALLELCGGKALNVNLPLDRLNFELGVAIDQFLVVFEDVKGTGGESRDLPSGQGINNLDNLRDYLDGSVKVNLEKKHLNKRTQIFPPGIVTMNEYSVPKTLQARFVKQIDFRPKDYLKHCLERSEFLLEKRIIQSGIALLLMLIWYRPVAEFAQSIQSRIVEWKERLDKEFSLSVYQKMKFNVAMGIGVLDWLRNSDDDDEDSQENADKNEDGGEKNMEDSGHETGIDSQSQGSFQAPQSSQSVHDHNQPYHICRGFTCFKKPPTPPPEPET
# T1 sequence (P11940 whole entry): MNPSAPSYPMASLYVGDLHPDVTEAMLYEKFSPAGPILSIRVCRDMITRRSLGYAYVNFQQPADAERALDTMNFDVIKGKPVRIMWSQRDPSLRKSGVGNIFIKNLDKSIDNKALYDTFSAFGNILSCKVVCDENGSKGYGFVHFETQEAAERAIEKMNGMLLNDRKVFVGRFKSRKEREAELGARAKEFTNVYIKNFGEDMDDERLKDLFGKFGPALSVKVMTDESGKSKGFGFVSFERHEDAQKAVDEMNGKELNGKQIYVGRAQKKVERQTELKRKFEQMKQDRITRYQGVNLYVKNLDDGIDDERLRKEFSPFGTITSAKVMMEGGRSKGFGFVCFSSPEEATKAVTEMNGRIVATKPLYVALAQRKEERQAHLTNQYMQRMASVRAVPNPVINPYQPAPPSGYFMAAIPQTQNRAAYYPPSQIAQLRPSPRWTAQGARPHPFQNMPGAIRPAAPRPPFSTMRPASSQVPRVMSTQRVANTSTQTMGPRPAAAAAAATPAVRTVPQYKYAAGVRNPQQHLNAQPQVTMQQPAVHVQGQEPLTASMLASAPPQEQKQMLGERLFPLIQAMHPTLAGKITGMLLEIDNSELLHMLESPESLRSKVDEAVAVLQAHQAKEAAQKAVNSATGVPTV
# Sequence of Cytochrome P450 2D6 (P10635 whole entry): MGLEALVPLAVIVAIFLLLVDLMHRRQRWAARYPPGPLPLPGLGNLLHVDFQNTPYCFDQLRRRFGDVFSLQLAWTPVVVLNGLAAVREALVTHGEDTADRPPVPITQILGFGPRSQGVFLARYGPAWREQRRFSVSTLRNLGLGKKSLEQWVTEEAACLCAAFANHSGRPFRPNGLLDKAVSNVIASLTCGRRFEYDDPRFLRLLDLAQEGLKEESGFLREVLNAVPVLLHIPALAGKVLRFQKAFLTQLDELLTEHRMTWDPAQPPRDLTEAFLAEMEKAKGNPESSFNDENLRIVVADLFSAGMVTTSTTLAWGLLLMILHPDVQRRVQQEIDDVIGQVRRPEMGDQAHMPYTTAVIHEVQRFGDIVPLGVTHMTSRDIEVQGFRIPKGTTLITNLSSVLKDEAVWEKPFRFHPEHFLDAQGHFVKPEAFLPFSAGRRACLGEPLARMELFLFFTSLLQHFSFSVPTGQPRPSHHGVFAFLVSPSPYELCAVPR
compound,measurement,setting,value
O=C(CSc1nccn(-c2ccc(Br)cc2)c1=O)NC1CCCC1,IC50,[1],> 66 µM (inactive)
same,IC50,[2],> 66 µM (inactive)
CC(C)NS(=O)(=O)c1ccc(NC(=S)NC(=O)c2cccc([N+](=O)[O-])c2)cc1,IC50,[1],> 66 µM (inactive)
same,IC50,[2],> 66 µM (inactive)
NC(=O)CN(c1ccccc1)C1SC(=O)N(Cc2ccccc2)C1=O (stereo unspecified),IC50,[1],> 66 µM (inactive)
same,IC50,[2],> 66 µM (inactive)
Cc1c(NC(=O)C(C)N2CC(C)OC(C)C2)c(=O)n(-c2ccccc2)n1C (stereo unspecified),EC50,[3],> 260 µM (inactive)
COc1ccc(S(=O)(=O)N[C@@H](Cc2ccccc2)C(=O)N2CC[C@@]3(O)CCCC[C@H]3C2)cc1,EC50,[3],> 260 µM (inactive)
CCC(=O)N1CCN(c2ccc(NC(=S)NC(=O)c3cccc([N+](=O)[O-])c3)cc2)CC1,IC50,[1],> 66 µM (inactive)
same,IC50,[2],> 66 µM (inactive)
O=C(Nc1cccc(Cl)c1)C1CCCN(S(=O)(=O)c2ccc(F)cc2)C1 (stereo unspecified),EC50,[3],> 260 µM (inactive)
Cc1cc(C(=O)NNc2ccc(Cl)cc2)no1,AC50,[4],1.35 µM (active)
same,EC50,[5],0.819 µM (active)
same,EC50,[6],2.59 µM (active)
CN1C(=O)C2C(c3ccc(N(C)C)cc3)=NN(Cc3ccccc3)C2C1=O (stereo unspecified),EC50,[3],40.3 µM (active)
same,IC50,[7],19 µM (active)
same,IC50,[8],43 µM (active)
CC1(C)SC(=S)N(NC(=O)Nc2cccc3ccccc23)C1N(O)C(=O)Nc1ccccc1 (stereo unspecified),EC50,[9],> 120 µM (not active)
same,EC50,[10],> 60 µM (not active)
same,EC50,[11],> 120 µM (not active)
same,CC50,[12],36.3 µM (active)
O=C(O)c1ccccc1SC1CC(=O)N(c2cccc3ccccc23)C1=O (stereo unspecified),IC50,[1],> 66 µM (inactive)
same,IC50,[2],> 66 µM (inactive)
COc1cc(/C=N/NC(=O)CC2C(=O)NN=C2C)ccc1O (stereo unspecified),IC50,[7],11.5 µM (active)
same,IC50,[8],53.7 µM (active)
O=C(NC(=S)Nc1cccnc1)c1cc2ccccc2o1,IC50,[1],> 66 µM (inactive)
same,IC50,[2],> 66 µM (inactive)
O=C1/C(=N/n2cnnc2)c2ccccc2N1Cc1ccccc1,IC50,[7],24.8 µM (active)
CCCCOc1ccc(CNn2c(C)nc3ccccc3c2=O)cc1,AC50,[13],7.94 µM (inconclusive)
same,IC50,[14],> 20 µM (inactive)
CCCOC(c1ccccc1)(c1ccc(C(F)(F)F)cc1)C(Oc1nc(C)cc(C)n1)C(=O)O (stereo unspecified),EC50,[15],11.4 µM (active)
same,EC50,[16],12.4 µM (active)
same,EC50,[17],8.08 µM (active)
same,EC50,[5],1.91 µM (active)
same,EC50,[6],> 160 µM (inactive)
CN(C)CC#Cc1ccc([C@H]2[C@H](CO)N3CCCCN(C(=O)CN(C)C)C[C@@H]23)cc1,AC50,[18],9.36 µM (active)
COc1cc(/C=C2/SC(Nc3ccc(O)cc3)=NC2=O)cc(OC)c1O,IC50,[14],> 20 µM (inactive)
COc1ccc(Cl)cc1C(=O)O/N=C(\N)c1ccccn1,CC50,[12],> 40 µM (active)
COc1ccc2c(c1)C(=O)Cc1ccccc1O2,IC50,[7],86.7 µM (active)
COc1cc(/C=N/NC(=O)c2ccoc2C)cc(OC)c1O,IC50,[7],33.9 µM (active)
CC(=O)NCCc1nc2ccccc2n1CCOc1cccc(C)c1,EC50,[3],> 260 µM (inactive)
CC(=O)Oc1cc2oc(=O)cc(C)c2cc1OC(C)=O,IC50,[7],21.4 µM (active)
Oc1ccc(/C=N/Nc2ccc(Cl)nn2)cc1O,IC50,[7],8.16 µM (active)
CN1CCN(/N=C/c2c[nH]c3ccccc23)CC1,IC50,[7],15.4 µM (active)
CCCCN1C(=N)N([C@@H](CCC)CN2CCC[C@H]2CN2C(N)=NC[C@H]2CC(C)C)C[C@H]1Cc1ccccc1,IC50,[14],> 20 µM (inactive)
CC(=O)c1cn(S(=O)(=O)c2ccccc2)c2ccccc12,IC50,[14],> 20 µM (inactive)
O=C1ON=C(c2ccccc2)/C1=C\c1ccco1,IC50,[7],28.2 µM (active)
COCCSc1nnc(NC(=O)C2CC(=O)N(c3ccc(C)cc3)C2)s1 (stereo unspecified),EC50,[5],> 38 µM (not active)
same,EC50,[6],> 160 µM (inactive)
Cc1ccccc1-n1nnc2c(=O)oc3ccccc3c21,EC50,[3],> 260 µM (inactive)
same,IC50,[19],1.13 µM (active)
COc1ccc2c3n(nc2c1)CCN=C3c1cc(Cl)c(N)c(Cl)c1,CC50,[12],35.5 µM (active)
CCCCn1c(SCC(=O)Nc2cccc(OC)c2)nc2ccc(N3CCOCC3)cc2c1=O,EC50,[5],> 38 µM (not active)
same,EC50,[6],141 µM (active)
COc1ccc(C)cc1N=C(S)NNC(=O)c1c(Br)cnn1C,EC50,[5],1.45 µM (active)
same,EC50,[6],> 150 µM (inactive)
CCOC(=O)c1[nH]c2ccc(F)cc2c1NC(=O)c1ccccc1C(=O)O,EC50,[20],> 150 µM (not active)
same,EC50,[21],> 150 µM (not active)
same,EC50,[22],> 150 µM (not active)
same,EC50,[5],> 38 µM (not active)
same,EC50,[6],> 150 µM (inconclusive)
